Assay results reported in PubChem BioAssay AID248 (DTP/NCI, 2004).
Several values for one entry are separate records, joined by “and”; a condition that tells them apart may be missing. Equal entries are not always repeated. Inconclusive results and toxic doses are left out. Cut-off read from the data, not from the text of the source: active = T/C of 150% or more; inactive = T/C below 125%.

Test system: L1210 leukemia ip in BDF1 mice, survival T/C
Assay: NCI In Vivo Anticancer Drug Screen. Data for tumor model L1210 Leukemia (intraperitoneal) in B6D2F1 (BDF1) mice
Details: endpoint: mean survival time, higher = longer survival
Method in brief: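 In this screen, tumor-bearing mice given compound are compared to those given vehicle, and their survival values are reported as a treated-to-control quotient.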

[1] = dose: 100.0 mg/kg/injection, schedule: Q01DX009 (ip), vehicle: saline with Tween-80
[2] = dose: 200.0 mg/kg/injection, schedule: Q01DX009 (ip), vehicle: saline with Tween-80
[3] = dose: 400.0 mg/kg/injection, schedule: Q01DX009 (ip), vehicle: saline with Tween-80
[4] = dose: 100.0 mg/kg/injection, schedule: Q01DX009 (ip), vehicle: Klucel (hydroxypropylcellulose) (HPC)
[5] = dose: 100.0 mg/kg/injection, schedule: Q04DX003 (ip), vehicle: Klucel (hydroxypropylcellulose) (HPC)
[6] = dose: 200.0 mg/kg/injection, schedule: Q01DX009 (ip), vehicle: Klucel (hydroxypropylcellulose) (HPC)
[7] = dose: 200.0 mg/kg/injection, schedule: Q04DX003 (ip), vehicle: Klucel (hydroxypropylcellulose) (HPC)
[8] = dose: 400.0 mg/kg/injection, schedule: Q01DX009 (ip), vehicle: Klucel (hydroxypropylcellulose) (HPC)
[9] = dose: 400.0 mg/kg/injection, schedule: Q04DX003 (ip), vehicle: Klucel (hydroxypropylcellulose) (HPC)
[10] = dose: 100.0 mg/kg/injection, schedule: Q04DX003 (ip), vehicle: saline with Tween-80
[11] = dose: 200.0 mg/kg/injection, schedule: Q04DX003 (ip), vehicle: saline with Tween-80
[12] = dose: 400.0 mg/kg/injection, schedule: Q04DX003 (ip), vehicle: saline with Tween-80
[13] = dose: 100.0 mg/kg/injection, schedule: Q01DX001 (ip), vehicle: Klucel (hydroxypropylcellulose) (HPC)
[14] = dose: 200.0 mg/kg/injection, schedule: Q01DX001 (ip), vehicle: Klucel (hydroxypropylcellulose) (HPC)

Measured: T/C

ON=C(CSCc1ccccc1)CSCc1ccccc1
inactive: dose: 50.0 mg/kg/injection, schedule: Q01DX009 (ip), vehicle: saline with Tween-80 101 % of control | [1] 101 % of control | [2] 100 % of control | [3] 101 % of control

O=C1OCc2ccccc2C1O (configuration not stated)
inactive: dose: 100.0 mg/kg/injection, schedule: Q01DX001 (ip), vehicle: saline 111 % of control | dose: 200.0 mg/kg/injection, schedule: Q01DX001 (ip), vehicle: saline 94 % of control | dose: 400.0 mg/kg/injection, schedule: Q01DX001 (ip), vehicle: saline 94 % of control

O=C(Nc1cc(Cl)c(Oc2ccc(Cl)cc2)cc1S(=O)(=O)O)Nc1cccc(Cl)c1Cl
inactive: dose: 50.0 mg/kg/injection, schedule: Q01DX009 (ip), vehicle: Klucel (hydroxypropylcellulose) (HPC) 109 % of control | [4] 104 % of control

CCCCCCCCCCCCCCCC
inactive: dose: 25.0 mg/kg/injection, schedule: Q04DX003 (ip), vehicle: Klucel (hydroxypropylcellulose) (HPC) 96 % of control | dose: 50.0 mg/kg/injection, schedule: Q04DX003 (ip), vehicle: Klucel (hydroxypropylcellulose) (HPC) 94 % of control | [4] 109 % of control | [5] 100 % of control and 104 % of control | [6] 96 % of control | [7] 102 % of control | [8] 89 % of control | [9] 97 % of control

CCCCCCCCCCCCCCCCCCNC(=O)Nc1ccccc1OC
inactive: dose: 100.0 mg/kg/injection, schedule: Q04DX002 (ip), vehicle: Klucel (hydroxypropylcellulose) (HPC) 101 % of control | dose: 200.0 mg/kg/injection, schedule: Q04DX002 (ip), vehicle: Klucel (hydroxypropylcellulose) (HPC) 107 % of control | dose: 400.0 mg/kg/injection, schedule: Q04DX002 (ip), vehicle: Klucel (hydroxypropylcellulose) (HPC) 96 % of control

O=C1C=C(c2ccccc2)C2(c3ccccc3)OC2O1 (configuration not stated)
inactive: [4] 109 % of control | [5] 98 % of control | [6] 100 % of control | [7] 98 % of control | [8] 98 % of control | [9] 98 % of control

COc1ccc(C)cc1NC(=O)Nc1ccc(SC)cc1
inactive: [4] 87 % of control | [6] 95 % of control | [8] 90 % of control

CCOC(=O)CNC(=O)OCCOc1ccc(-c2ccccc2)cc1
inactive: [1] 98 % of control | [2] 97 % of control | [3] 95 % of control

CCNC(=O)C1C2CC3OC(=O)C1C3C2 (configuration not stated)
inactive: [10] 90 % of control | [11] 95 % of control | [12] 95 % of control

COc1ccc(/C=C(\C#N)c2cccc3ccccc23)cc1
inactive: [5] 98 % of control | [7] 105 % of control | [9] 90 % of control

Cc1cccc(NC(=O)C2CCC(CC3CCCCC3)CC2)c1 (configuration not stated)
inactive: dose: 50.0 mg/kg/injection, schedule: Q01DX001 (ip), vehicle: Klucel (hydroxypropylcellulose) (HPC) 89 % of control | [13] 89 % of control | [14] 87 % of control

CCCCCCCCCCCCCCC[N+](C)(C)C
inactive: dose: 12.5 mg/kg/injection, schedule: Q01DX009 (ip), vehicle: saline 102 % of control | dose: 25.0 mg/kg/injection, schedule: Q01DX009 (ip), vehicle: saline 93 % of control

CCOP(OCC)Oc1ccccc1
inactive: [10] 92 % of control | [11] 109 % of control | [12] 100 % of control

O=C1C(=O)c2cccc3cccc1c23
inactive: [13] 88 % of control | [1] 90 % of control | [14] 93 % of control | [2] 89 % of control | dose: 400.0 mg/kg/injection, schedule: Q01DX001 (ip), vehicle: Klucel (hydroxypropylcellulose) (HPC) 97 % of control | [3] 89 % of control

O=C(OCc1ccccc1)C(=O)OCc1ccccc1
inactive: [4] 90 % of control | [5] 95 % of control | [6] 103 % of control | [7] 100 % of control | [9] 100 % of control
